Measurements from ChEMBL document CHEMBL3714742, “Pyrimido (4,5-b) indole derivatives” (2003).
pIC50: −log10 of the molar value. Calls of active or inactive are those of the source. No rule for the calls is given here.

Key:
[1] = test system: Mus musculus; experiment: Inhibition of anti-CD3 antibody-induced IFNgamma production in Balb/c mouse dosed intravenously 5 mins before anti-CD3 antibody injection and measured 2 hrs post-challenge by ELISA; assay type: functional, organism-based
[2] = target: T1, Dual specificity mitogen-activated protein kinase kinase 7 (Homo sapiens, UniProt O14733); experiment: Inhibition of GST-tagged human MKK7 expressed in Escherichia coli (BL21(DE3) pLysS) co-expressing human MEKK catalytic domain using biotinylated and GST-tagged rat GST-KN-SAPKalpha substrate incubated for 1 hr by time-resolved fluorescence based assay
T1 sequence (O14733 whole entry): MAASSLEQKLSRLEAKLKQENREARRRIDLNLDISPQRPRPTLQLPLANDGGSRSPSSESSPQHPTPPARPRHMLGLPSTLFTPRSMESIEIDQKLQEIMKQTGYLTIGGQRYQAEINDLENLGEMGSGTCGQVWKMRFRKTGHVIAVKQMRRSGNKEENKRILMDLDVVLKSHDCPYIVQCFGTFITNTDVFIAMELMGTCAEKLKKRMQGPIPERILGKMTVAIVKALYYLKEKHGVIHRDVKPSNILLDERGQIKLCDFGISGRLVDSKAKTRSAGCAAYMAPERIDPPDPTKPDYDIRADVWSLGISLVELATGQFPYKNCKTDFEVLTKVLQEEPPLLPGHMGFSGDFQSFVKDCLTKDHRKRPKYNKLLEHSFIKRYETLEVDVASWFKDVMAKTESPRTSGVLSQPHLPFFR

[3] = test system: Mus musculus; experiment: Inhibition of anti-CD3 antibody-induced IL4 production in Balb/c mouse dosed intravenously 5 mins before anti-CD3 antibody injection and measured 2 hrs post-challenge by ELISA; assay type: functional, organism-based
[4] = test system: Mus musculus; experiment: Inhibition of anti-CD3 antibody-induced IL2 production in Balb/c mouse dosed intravenously 5 mins before anti-CD3 antibody injection and measured 2 hrs post-challenge by ELISA; assay type: functional, organism-based

SMILES	pIC50 [2]	inhibition [1]	inhibition [3]	inhibition [4]
Cc1nc(N2CCCCC2)c2c(n1)[nH]c1ccc(O)cc12	> 6.00	Active	Active	Active
Cc1nc(N2CCCCC2CO)c2c(n1)[nH]c1ccc(O)cc12 (stereo unspecified)	6.00	Active	Active	Active
NC(=O)c1ccc2[nH]c3ncnc(N4CCCC(N)C4)c3c2c1 (stereo unspecified)	> 6.00	Active	Active	Active
CC(C)(C)OC(=O)NC1CCCN(c2ncnc3[nH]c4ccc(C(N)=O)cc4c23)C1 (stereo unspecified)	> 6.00	Active	Active	Active
NC1CCN(c2ncnc3[nH]c4ccc(O)cc4c23)CC1	> 6.00	Active	Active	Active
Cc1nc(N2CCCC2)c2c(n1)[nH]c1ccc(O)cc12	6.00	Active	Active	Active
Oc1ccc2[nH]c3ncnc(N4CCC(O)(Cc5ccccc5)CC4)c3c2c1	> 6.00	Active	Active	Active
COc1ccc2[nH]c3nc(N)nc(N4CCOCC4)c3c2c1	> 6.00	Active	Active	Active
Nc1nc(N2CCCC2)c2c(n1)[nH]c1ccc(O)cc12	> 6.00	Active	Active	Active
NC(=O)c1ccc2[nH]c3ncnc(N4CCCCC4CO)c3c2c1 (stereo unspecified)	> 6.00	Active	Active	Active

Continued, in another order:

pIC50 [2]	SMILES	inhibition [1]	inhibition [3]	inhibition [4]
> 6.00	CN(c1ncnc2[nH]c3ccc(O)cc3c12)C1CCCCC1	Active	Active	Active
> 6.00	Oc1ccc2[nH]c3ncnc(N4CCCC(O)C4)c3c2c1 (stereo unspecified)	Active	Active	Active
> 6.00	CN(Cc1ccccc1)c1nc(N)nc2[nH]c3ccc(O)cc3c12	Active	Active	Active
> 6.00	Nc1nc(N2CCC(Br)CC2)c2c(n1)[nH]c1ccc(O)cc12	Active	Active	Active
> 6.00	CC(CO)Nc1ncnc2[nH]c3ccc(O)cc3c12 (stereo unspecified)	Active	Active	Active
> 6.00	O=C1CCN(c2ncnc3[nH]c4ccc(O)cc4c23)CC1	Active	Active	Active
> 6.00	Oc1ccc2[nH]c3ncnc(N[C@H]4CC[C@H](O)CC4)c3c2c1	Active	Active	Active
> 6.00	NC(=O)c1ccc2[nH]c3ncnc(N4CCCC4)c3c2c1	Active	Active	Active
> 6.00	NC(=O)C1CCN(c2ncnc3[nH]c4ccc(O)cc4c23)CC1	Active	Active	Active
> 6.00	CC1CCCCN1c1nc(N)nc2[nH]c3ccc(O)cc3c12 (stereo unspecified)	Active	Active	Active
> 6.00	Oc1ccc2[nH]c3ncnc(NC4CCCC4)c3c2c1	Active	Active	Active
> 6.00	CN(C)c1ncnc2[nH]c3ccc(O)cc3c12	Active	Active	Active
6.00	Cc1nc(N2CCC(CO)CC2)c2c(n1)[nH]c1ccc(O)cc12	Active	Active	Active
> 6.00	NC(=O)C1CCCN(c2ncnc3[nH]c4ccc(O)cc4c23)C1 (stereo unspecified)	Active	Active	Active
